In patent US20120283216A1, “FUNGICIDAL 2-(BICYCLIC ARYLOXY)CARBOXAMIDES” (priority 2009, published 2012):

Tests used:
Format in all cases: in vivo
[1] = tested on: Blumeria graminis f. sp. tritici; assay: Test A: wheat powdery mildew, preventive spray on wheat seedlings, visual disease rating; conditions: preventive spray at 40 ppm, rated 8 days after inoculation
How it was run: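 After 8 days in a 20° C. growth chamber, disease was scored visually as % control versus untreated (100 = full control). Plants had received a run-off spray of 40 ppm (≈800 g/ha label rate) in acetone/water plus surfactant, with spore-dust inoculation one day later.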

Septoria tritici = assay: Test B: wheat leaf blotch, preventive spray on wheat seedlings, visual disease rating; conditions: preventive spray at 40 ppm, rated after 48 h + 19 days
How it was run: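 Visual ratings of percent disease control relative to untreated controls were made 19 days after a 48 h saturated-atmosphere incubation at 20° C. Plants had been spore-inoculated one day after a preventive run-off spray at 40 ppm, equivalent to 800 g/ha.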

Botrytis cinerea = assay: Test C: tomato botrytis, preventive spray on tomato seedlings, visual disease rating; conditions: preventive spray at 40 ppm, rated after 48 h + 3 days
How it was run: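 Compounds applied at 40 ppm (≈800 g/ha) in acetone/water with surfactant, sprayed to run-off on tomato seedlings. Inoculated next day with B. cinerea spores; 48 h saturated humidity at 20 °C, then 3 days at 27 °C. Visual rating as % disease control versus untreated controls.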

Compound | Test A disease control rating (100 = 100% disease control, 0 = no disease control relative to the controls) [1] [%] | Test B disease control rating (100 = 100% disease control, 0 = no disease control relative to the controls) (Septoria tritici) [%] | Test C disease control rating (100 = 100% disease control, 0 = no disease control relative to the controls) (Botrytis cinerea) [%] | pest or weed control at 40 ppm ([1]; Blumeria graminis, 192 h, read-out: Test A disease control rating (100 = 100% disease control, 0 = no disease control relative to the controls)) [%] | pest or weed control at 40 ppm (Septoria tritici; Zymoseptoria tritici, 504 h, read-out: Test B disease control rating (100 = 100% disease control, 0 = no disease control relative to the controls)) [%] | pest or weed control at 40 ppm (Botrytis cinerea; Botrytis cinerea, 120 h, read-out: Test C disease control rating (100 = 100% disease control, 0 = no disease control relative to the controls)) [%]
C#CCOc1ccc2ccc(OC(CC)C(=O)NC(C)(C)C)cc2c1 (stereo not drawn) [Compound 134] | 43 | 100 | 100 |  |  | 
C#CCOc1ccc2ccc(OC(CC)C(=O)NC(C)(C)C#C)cc2c1 (stereo not drawn) [Compound 135] | 0 | 98 | 99 |  |  | 
CCCOc1ccc2ccc(OC(OC)C(=O)NC(C)(C)CC)cc2c1 (stereo not drawn) [Compound 136] | 79 | 98 | 97 |  |  | 
C#CCOc1ccc2ccc(OC(OC)C(=O)NC(C)(C)CC)cc2c1 (stereo not drawn) [Compound 137] | 87 | 94 | 99 |  |  | 
CCc1ccc2ccc(OC(CC)C(=O)NC(C)(C)COC)cc2c1 (stereo not drawn) [Compound 138, 2-[(7-ethyl-2-naphthalenyl)oxy]-N-(2-methoxy-1,1-dimethylethyl)-butanamide] |  |  |  | 99 | 83 | 100
CCOCC(C)(C)NC(=O)C(CC)Oc1ccc2ccc(CC)cc2c1 (stereo not drawn) [Compound 139] | 97 | 47 | 96 |  |  | 
C#CC(C)(C)NC(=O)C(CC)Oc1ccc2ccc(CC)cc2c1 (stereo not drawn) [Compound 141] | 97 | 80 | 100 |  |  | 
CC#CC(C)(C)NC(=O)C(CC)Oc1ccc2ccc(CC)cc2c1 (stereo not drawn) [Compound 142] | 96 | 77 | 93 |  |  | 
CCCc1ccc2ccc(OC(CC)C(=O)NC(C)(C)COC)cc2c1 (stereo not drawn) [Compound 143] | 98 | 100 | 99 |  |  | 
C#CC(C)(C)NC(=O)C(CC)Oc1ccc2ccc(CCC)cc2c1 (stereo not drawn) [Compound 144] | 99 | 93 | 98 |  |  | 
CCC(Oc1cnc2ccc(OC)cc2c1)C(=O)NC(C)(C)COC (stereo not drawn) [Compound 146] | 0 | 100 | 99 |  |  | 
C#CC(C)(C)NC(=O)C(CC)Oc1cnc2ccc(OC)cc2c1 (stereo not drawn) [Compound 147] | 0 | 99 | 99 |  |  | 
C#Cc1ccc2ncc(OC(CC)C(=O)NC(C)(C)C)cc2c1 (stereo not drawn) [Compound 149] | 100 | 100 | 98 |  |  | 
C#Cc1ccc2ncc(OC(CC)C(=O)NC(C)(C)CC)cc2c1 (stereo not drawn) [Compound 150] | 96 | 100 | 97 |  |  | 
C#Cc1ccc2ncc(OC(CC)C(=O)NC(C)(C)C#C)cc2c1 (stereo not drawn) [Compound 151] | 99 | 100 | 96 |  |  | 
C#Cc1ccc2ncc(OC(CC)C(=O)NC(C)(C)C#N)cc2c1 (stereo not drawn) [Compound 152] | 88 | 100 | 94 |  |  | 
